The source of these data is patent publication EP4233857A1, “BIOACTIVE COMPOUNDS OBTAINED FROM CY[…] SP. LEGE 181152” (CIIMAR - Centro Interdisciplinar de Investigação Marinha e …, priority 2022, dated 2023).

“Also recorded” adds a separate entry of the source.

Data set [1] relates to HCT 116 human colon carcinoma cells. The data set can be described thus: Cytotoxicity on monolayer (2D) cells. Format: cell-based. The settings on record: 2D assay (monolayer). How it is done: The cytotoxic effect of phormidolide D (3) was tested against HCT 116 human colon carcinoma cells in monolayer (2D) and spheroid models (Figure 11). […] The difference of the IC50 values between the two cell models is commonly reported in the literature. Cancer spheroids tend to be more resistant to treatment than monolayer cells, and thus tend to present higher IC50 values. However, the cytotoxic effects in cancer spheroids are more realistic, because in this culture model, drug diffusion and cell proliferation effects are being tested. The results obtained for compound 3 are very interesting: despite its molecular weight (1064 g/mol) it can still penetrate the tightly packed cells of the outer layer of the spheroid, leading to a decrease in the cell viability in relevant concentrations (Figure 9). […]

Data set [2] has as its system human colorectal carcinoma cell line, HCT 116. The data set can be described thus: Cytotoxicity on 3D cancer spheroids, cell viability by acid phosphatase assay. The data set is classed as cell-based. How it is done: The cytotoxicity of the fractions A to H2 was tested against the 3D model of the human colorectal carcinoma cell line, HCT 116. Colorectal cancer has one of the highest incidences among cancer diagnosis and is also one of cancers with the highest mortality rate. Over the years, the 3D cell models have taken over drug screening due to their biologically relevance when compared to the more conventional monolayer model. Three dimensional spheroids are more representative of the microenvironment of an in vivo tumour, with interactions between cells in the different layers - a necrotic core, an intermediate quiescent layer, and a proliferative outer layer.
Cells were seeded in ULA 96 well plates and incubated for 5 days for spheroid formation. After formation, spheroids were exposed to the fractions (25 µg/mL) for 96h. Cell viability was assessed by the acid phosphatase assay. In viable cells these intracellular enzymes hydrolyse […], which can be quantified colorimetrically at 405 nm. The results were expressed as the percentage of cell viability normalized to the solvent control (DMSO). […]

Data set [3] relates to panel of 60 human cancer cell lines. The settings on record: Williamson et al., 2002; cited from earlier work.
Data set [4] relates to brine shrimp. The settings on record: cited from earlier work.

In the case of phormidolide D, the results for the IC50 in data set [1] and in data set [2] were 1.21 µM and 13.6 µM, respectively.
With phormidolide A, in data set [3], the “cytotoxicity against a panel of 60 cancer cells” value is “noncytotoxic; also recorded: not considered active”. Also, the LD50 in data set [4] is on record as 1.5 µM.

Broadly, the IC50 is the concentration at which inhibition is half-maximal.
